# Molecular target: Trp operon repressor (Escherichia coli (strain K12), UniProt P0A881)
# Experiment: Binding Assay
# From the text: Binding assay of L-trptophan and analogues to trp aporepressor
row,SMILES,Kd [µM]
1,"COC(=O)C(N)Cc1c[nH]c2ccccc12 [L-Tryptophan methyl ester, 14]",37.1
2,"O=C(O)CCc1c[nH]c2ccccc12 [Indole-3-propionic acid, 4]",9.74
3,"O=C(O)/C=C/c1c[nH]c2ccccc12 [3-Beta-Indole-acrylic acid (Tran), 1]",0.516
4,"c1ccc2c(c1)CCN2 [Indoline, 19]",174
5,"NC(Cc1c[nH]c2ncccc12)C(=O)O [7-Aza-L-tryptophan, 21]",466
6,"Cc1ccc2[nH]cc(CCN)c2c1 [5-Methyl-tryptamine, 10]",28.8
7,"Cn1cc(CC(N)C(=O)O)c2ccccc21 [1-Methyl-L-tryptophan, 8]",26.4
8,"O=C(O)Cc1c[nH]c2ccccc12 [Indole-3-acetic acid, 16]",72.9
9,"NC(Cc1ccccc1)C(=O)O [L-Phenylalanine, 23]",> 3000
10,"Cc1ccc2[nH]cc(CC(N)C(=O)O)c2c1 [5-Methyl-L-tryptophan, 2]",3.25
11,"NC(=O)C(N)Cc1c[nH]c2ccccc12 [L-Tryptophanamide, 9]",27.7
12,"O=C(O)CCCc1c[nH]c2ccccc12 [Indole-3-butyric acid, 3]",5.51
13,"COc1ccc2[nH]cc(CC(N)C(=O)O)c2c1 [5-Methoxyu-L-tryptophan, 11]",30.7
14,c1ccc2[nH]ccc2c1,25.1
15,"OCCc1c[nH]c2ccccc12 [Tryptaphol, 6]",23.3
16,"NC(Cc1c[nH]c2ccc(O)cc12)C(=O)O [5-Hydroxy-L-tryptophan, 22]",2840
17,"NCCc1c[nH]c2ccccc12 [Tryptamine, 15]",41.1
18,"O=CNC(Cc1c[nH]c2ccccc12)C(=O)O [N-Formyl-L-tryptophan, 18]",117
19,"NC(Cc1c[nH]c2cc([N+](=O)[O-])ccc12)C(=O)O [6-Nitro-L-tryptophan, 17]",75.6
20,"O=C(O)C(O)Cc1c[nH]c2ccccc12 [L-Indole-3-lactic acid, 13]",35.2
